In patent US8541598B2, “Biodegradable solvents for the chemical industry” (Dublin City University, priority 2007, dated 2013):

System: Pseudomonas aeruginosa, Escherichia coli, Klebsiella sp., Salmonella sp., Staphylococcus aureus, Enterococcus sp., Bacillus subtilis
Assay: Antimicrobial activity / minimum inhibitory concentrations on seven strains of bacteria
Assay type: cell-based
Conditions: for toxicity / antibacterial activity in words: seven strains of bacteria; for MIC values: seven strains, not split, range tested 0-20000 μg/ml
Protocol: Seven strains of bacteria were used in the assessment of the antimicrobial activity of the ILs claimed: 4 gram negative and three gram positive as shown below.
A wide concentration range was tested (0-20000 μg/ml). The concentrations screened for antibacterial activity are generally from 2 μg/ml to 1000 μg/ml (Table 6). […] The concentration range screened for the ILs containing ethers was up to 20000 μg/ml. At these high concentrations a lack of antibacterial activity is a significant result.

2,3-dimethyl-1-(2-[2-butoxy]ethoxycarbonylmethyl)imidazolium BF4 [KG71]
toxicity / antibacterial activity in words: non-toxic | MIC values: >20000 KG71 μg/ml

2,3-dimethyl-1-(2-[2-butoxy]ethoxycarbonylmethyl)imidazolium PF6 [KG32]
toxicity / antibacterial activity in words: non-toxic | MIC values: >20000 KG32 μg/ml

2,3-dimethyl-1-(2-[2-methoxyethoxy]ethoxycarbonylmethyl)imidazolium BF4 [KG72]
toxicity / antibacterial activity in words: non-toxic | MIC values: >20000 KG72 μg/ml

2,3-dimethyl-1-(2-[2-methoxyethoxy]ethoxycarbonylmethyl)imidazolium PF6 [KG33]
toxicity / antibacterial activity in words: non-toxic | MIC values: >20000 KG33 μg/ml

3-methyl-1-(2-[2-butoxy]ethoxycarbonylmethyl)imidazolium BF4 [KG65]
toxicity / antibacterial activity in words: non-toxic | MIC values: >20000 KG65 μg/ml

3-methyl-1-(2-[2-butoxy]ethoxycarbonylmethyl)imidazolium PF6 [KG26]
toxicity / antibacterial activity in words: non-toxic | MIC values: >20000 KG26 μg/ml

3-methyl-1-(2-[2-butoxyethoxy]ethoxycarbonylmethyl)imidazolium BF4 [KG69]
toxicity / antibacterial activity in words: non-toxic | MIC values: >20000 KG69 μg/ml

3-methyl-1-(2-[2-butoxyethoxy]ethoxycarbonylmethyl)imidazolium PF6 [KG30]
toxicity / antibacterial activity in words: non-toxic | MIC values: >20000 KG30 μg/ml

3-methyl-1-(2-[2-ethoxy]ethoxycarbonylmethyl)imidazolium BF4 [KG63]
toxicity / antibacterial activity in words: non-toxic | MIC values: >20000 KG63 μg/ml

3-methyl-1-(2-[2-ethoxy]ethoxycarbonylmethyl)imidazolium PF6 [KG24]
toxicity / antibacterial activity in words: non-toxic | MIC values: >20000 KG24 μg/ml

3-methyl-1-(2-[2-ethoxyethoxy]ethoxycarbonylmethyl)imidazolium BF4 [KG67]
toxicity / antibacterial activity in words: non-toxic | MIC values: >20000 KG67 μg/ml

3-methyl-1-(2-[2-ethoxyethoxy]ethoxycarbonylmethyl)imidazolium PF6 [KG28]
toxicity / antibacterial activity in words: non-toxic | MIC values: >20000 KG28 μg/ml

3-methyl-1-(2-[2-methoxy]ethoxycarbonylmethyl)imidazolium BF4 [KG62]
toxicity / antibacterial activity in words: non-toxic | MIC values: >20000 KG62 μg/ml

3-methyl-1-(2-[2-methoxy]ethoxycarbonylmethyl)imidazolium PF6 [KG23]
toxicity / antibacterial activity in words: non-toxic | MIC values: >20000 KG23 μg/ml

3-methyl-1-(2-[2-methoxy]ethoxycarbonylmethyl)imidazolium bromide [KG7]
toxicity / antibacterial activity in words: non-toxic | MIC values: >20000 KG7 μg/ml

3-methyl-1-(2-[2-methoxyethoxy]ethoxycarbonylmethyl)imidazolium BF4 [KG66]
toxicity / antibacterial activity in words: non-toxic | MIC values: >20000 KG66 μg/ml

3-methyl-1-(2-[2-methoxyethoxy]ethoxycarbonylmethyl)imidazolium PF6 [KG27]
toxicity / antibacterial activity in words: non-toxic | MIC values: 2500 KG27 μg/ml

3-methyl-1-(2-[2-propoxy]ethoxycarbonylmethyl)imidazolium BF4 [KG64]
toxicity / antibacterial activity in words: non-toxic | MIC values: >20000 KG64 μg/ml

3-methyl-1-(2-[2-propoxy]ethoxycarbonylmethyl)imidazolium PF6 [KG25]
toxicity / antibacterial activity in words: non-toxic | MIC values: >20000 KG25 μg/ml

3-methyl-1-(2-[2-propoxyethoxy]ethoxycarbonylmethyl)imidazolium BF4 [KG68]
toxicity / antibacterial activity in words: non-toxic | MIC values: >20000 KG68 μg/ml

3-methyl-1-(2-[2-propoxyethoxy]ethoxycarbonylmethyl)imidazolium PF6 [KG29]
toxicity / antibacterial activity in words: non-toxic | MIC values: >20000 KG29 μg/ml

COCCOC(=O)Cn1cc[n+](C)c1.O=S(=O)([N-]S(=O)(=O)C(F)(F)F)C(F)(F)F [KG49, 3-methyl-1-(2-[2-methoxy]ethoxycarbonylmethyl)imidazolium NTf2]
toxicity / antibacterial activity in words: non-toxic | MIC values: 10000 KG49 μg/ml

CCOCCOC(=O)C[n+]1ccn(C)c1.O=S(=O)([N-]S(=O)(=O)C(F)(F)F)C(F)(F)F [KG50, 3-methyl-1-(2-[2-ethoxy]ethoxycarbonylmethyl)imidazolium NTf2]
toxicity / antibacterial activity in words: non-toxic | MIC values: >20000 KG50 μg/ml

CCCOCCOC(=O)Cn1cc[n+](C)c1.O=S(=O)([N-]S(=O)(=O)C(F)(F)F)C(F)(F)F [KG51, 3-methyl-1-(2-[2-propoxy]ethoxycarbonylmethyl)imidazolium NTf2]
toxicity / antibacterial activity in words: non-toxic | MIC values: 10000 KG51 μg/ml

CCCCOCCOC(=O)Cn1cc[n+](C)c1.O=S(=O)([N-]S(=O)(=O)C(F)(F)F)C(F)(F)F [KG52, 3-methyl-1-(2-[2-butoxy]ethoxycarbonylmethyl)imidazolium NTf2]
toxicity / antibacterial activity in words: non-toxic | MIC values: >20000 KG52 μg/ml

COCCOCCOC(=O)Cn1cc[n+](C)c1.O=S(=O)([N-]S(=O)(=O)C(F)(F)F)C(F)(F)F [KG53, 3-methyl-1-(2-[2-methoxyethoxy]ethoxycarbonylmethyl)imidazolium NTf2]
toxicity / antibacterial activity in words: non-toxic | MIC values: 10000 KG53 μg/ml

CCOCCOCCOC(=O)C[n+]1ccn(C)c1.O=S(=O)([N-]S(=O)(=O)C(F)(F)F)C(F)(F)F [KG54, 3-methyl-1-(2-[2-ethoxyethoxy]ethoxycarbonylmethyl)imidazolium NTf2]
toxicity / antibacterial activity in words: non-toxic | MIC values: >20000 KG54 μg/ml

CCCOCCOCCOC(=O)C[n+]1ccn(C)c1.O=S(=O)([N-]S(=O)(=O)C(F)(F)F)C(F)(F)F [KG55, 3-methyl-1-(2-[2-propoxyethoxy]ethoxycarbonylmethyl)imidazolium NTf2]
toxicity / antibacterial activity in words: non-toxic | MIC values: >20000 KG55 μg/ml

CCCCOCCOCCOC(=O)Cn1cc[n+](C)c1.O=S(=O)([N-]S(=O)(=O)C(F)(F)F)C(F)(F)F [KG56, 3-methyl-1-(2-[2-butoxyethoxy]ethoxycarbonylmethyl)imidazolium NTf2]
toxicity / antibacterial activity in words: non-toxic | MIC values: >20000 KG56 μg/ml

CCCCOCCOC(=O)C[n+]1ccn(C)c1C.O=S(=O)([N-]S(=O)(=O)C(F)(F)F)C(F)(F)F [KG58, 2,3-dimethyl-1-(2-[2-butoxy]ethoxycarbonylmethyl)imidazolium NTf2]
toxicity / antibacterial activity in words: non-toxic | MIC values: >20000 KG58 μg/ml

COCCOCCOC(=O)Cn1cc[n+](C)c1C.O=S(=O)([N-]S(=O)(=O)C(F)(F)F)C(F)(F)F [KG59, 2,3-dimethyl-1-(2-[2-methoxyethoxy]ethoxycarbonylmethyl)imidazolium NTf2]
toxicity / antibacterial activity in words: non-toxic | MIC values: >20000 KG59 μg/ml

CCCCOC(=O)Cn1cc[n+](C)c1.N#C[N-]C#N [KG73, 3-Methyl-1-(butoxycarbonylmethyl) imidazolium N(CN)2^−]
MIC values: 5000 KG73 μg/ml

COCCOC(=O)Cn1cc[n+](C)c1.N#C[N-]C#N [KG75, 3-methyl-1-(2-[2-methoxy]ethoxycarbonylmethyl)imidazolium N(CN)2]
toxicity / antibacterial activity in words: non-toxic | MIC values: >20000 KG75 μg/ml

CCOCCOC(=O)C[n+]1ccn(C)c1.N#C[N-]C#N [KG76, 3-methyl-1-(2-[2-ethoxy]ethoxycarbonylmethyl)imidazolium N(CN)2]
toxicity / antibacterial activity in words: non-toxic | MIC values: >20000 KG76 μg/ml

CCCOCCOC(=O)C[n+]1ccn(C)c1.N#C[N-]C#N [KG77, 3-methyl-1-(2-[2-propoxy]ethoxycarbonylmethyl)imidazolium N(CN)2]
toxicity / antibacterial activity in words: non-toxic | MIC values: >20000 KG77 μg/ml

CCCCOCCOC(=O)Cn1cc[n+](C)c1.N#C[N-]C#N [KG78, 3-methyl-1-(2-[2-butoxy]ethoxycarbonylmethyl)imidazolium N(CN)2]
toxicity / antibacterial activity in words: non-toxic | MIC values: >20000 KG78 μg/ml

COCCOCCOC(=O)Cn1cc[n+](C)c1.N#C[N-]C#N [KG79, 3-methyl-1-(2-[2-methoxyethoxy]ethoxycarbonylmethyl)imidazolium N(CN)2]
toxicity / antibacterial activity in words: non-toxic | MIC values: >20000 KG79 μg/ml

CCOCCOCCOC(=O)Cn1cc[n+](C)c1.N#C[N-]C#N [KG80, 3-methyl-1-(2-[2-ethoxyethoxy]ethoxycarbonylmethyl)imidazolium N(CN)2]
toxicity / antibacterial activity in words: non-toxic | MIC values: >20000 KG80 μg/ml

CCCOCCOCCOC(=O)Cn1cc[n+](C)c1.N#C[N-]C#N [KG81, 3-methyl-1-(2-[2-propoxyethoxy]ethoxycarbonylmethyl)imidazolium N(CN)2]
toxicity / antibacterial activity in words: non-toxic | MIC values: >20000 KG81 μg/ml

CCCCOCCOCCOC(=O)Cn1cc[n+](C)c1.N#C[N-]C#N [KG82, 3-methyl-1-(2-[2-butoxyethoxy]ethoxycarbonylmethyl)imidazolium N(CN)2]
toxicity / antibacterial activity in words: non-toxic | MIC values: >20000 KG82 μg/ml

CCCCOCCOC(=O)Cn1cc[n+](C)c1C.N#C[N-]C#N [KG84, 2,3-dimethyl-1-(2-[2-butoxy]ethoxycarbonylmethyl)imidazolium N(CN)2]
toxicity / antibacterial activity in words: non-toxic | MIC values: >20000 KG84 μg/ml
